{"source": "patent US20200172549A1", "about": "“NOVEL CHLORIN E6-CURCUMIN DERIVATIVES, PREPARATION METHOD THEREOF, AND PHARMACEUTICAL COMPOSITION CONTAINING THE SAME FOR TREATMENT OF CANCER” (DONG SUNG PHARM. CO., LTD., priority 2017, published 2020)", "key": {"[1]": {"tested_on": "MIA-PaCa-2", "assay": "Dark cytotoxicity, MTT assay, MIA-PaCa-2", "type": "cell-based", "details": "3 h, no light, 72 h incubation", "procedure": "(§1) Dark cytotoxicity: The culture of AsPC-1 pancreatic cancer cells were grown in RPMI-1640 medium (life technologies corporation, USA) supplemented with 10% heat-inactivated fetal bovine serum (life technologies corporation, USA) and 1 penicillin (life technologies corporation, USA), whereas MIA-paca2 and PANC-1 cells were grown in DMEM. The MTT assay was used to assess the cell viability of AsPC-1, MIA-paca2, PANC-1 cells. The cells attached to a 96-well plate (5,000 cells/well) were treated with 3.125 μM, 6.25 μM, 12.5 μM, 25 μM, 50 μM of photosensitizers, 7, 10, 13, 16, and 3 for 3 h. The cells were then incubated for 72 h at 37° C. in a 5% CO2 incubator and exposed to MTT [3-(4,5-dimethylthiazol-2-yl)-2,5-diphenyl-tetrazolium bromide] (250 μg/ml) for 3 h. The solution was changed to 200 μl of dimethylsulfoxide (DMSO, Sigma). After 30 min incubation and shaking in microplate mixer, the optical density (OD) was measured using a microplate reader (Thermo Fisher scientific, USA) at 570 nm wavelength. The cell viability was calculated using the following formula: Cell viability (%)=Mean optical density of treated wells/Mean optical density of control wells×100."}, "[2]": {"tested_on": "AsPC-1 pancreatic cancer cells", "assay": "Phototoxicity (PDT), MTT assay, AsPC-1", "type": "cell-based", "details": "for Cell viability, Phototoxicity against AsPC-1: 3 h, 50 mW 0.09 J/cm^2 laser 100 sec, 72 h incubation", "procedure": "as §1, with “Phototoxicity: The culture” for “Dark cytotoxicity: The culture”, “USA) and 1% penicillin (life” for “USA) and 1 penicillin (life”, “3 h. The photosensitized cells were then irradiated with a 50 mW, 0.09 J/cm^2 laser for 100 sec. The cells” for “3 h. The cells”"}, "[3]": {"tested_on": "AsPC-1 pancreatic cancer cells", "assay": "Dark cytotoxicity, MTT assay, AsPC-1", "type": "cell-based", "details": "3 h, no light, 72 h incubation", "procedure": "as §1"}, "[4]": {"tested_on": "PANC-1", "assay": "Phototoxicity (PDT), MTT assay, PANC-1", "type": "cell-based", "details": "for Cell viability, Phototoxicity against PANC-1: 3 h, 50 mW 0.09 J/cm^2 laser 100 sec, 72 h incubation", "procedure": "as §1, with “Phototoxicity: The culture” for “Dark cytotoxicity: The culture”, “USA) and 1% penicillin (life” for “USA) and 1 penicillin (life”, “3 h. The photosensitized cells were then irradiated with a 50 mW, 0.09 J/cm^2 laser for 100 sec. The cells” for “3 h. The cells”"}, "[5]": {"assay": "Photophysical properties (absorption) in DMSO", "type": "physicochemical", "procedure": "The photophysical properties of Ce6-curcumin conjugates and dimethyl ester ce6 were analyzed in dimethyl sulfoxide (DMSO). All the photosensitizers 7, 10, 13, and 16 (Formula IV) effectively absorbed the red light compared to dimethyl ester ce6. The major soret peak at λmax=405-408 nm and Q-bands at 667 nm for the photosensitizers 7, 10, 13, and 16 (Formula IV) and Q band peak at 656 for dimethyl ester ce6."}, "[6]": {"tested_on": "MIA-PaCa-2", "assay": "Phototoxicity (PDT), MTT assay, MIA-PaCa-2", "type": "cell-based", "details": "for Cell viability, Phototoxicity against MIA-PaCa-2: 3 h, 50 mW 0.09 J/cm^2 laser 100 sec, 72 h incubation", "procedure": "as §1, with “Phototoxicity: The culture” for “Dark cytotoxicity: The culture”, “USA) and 1% penicillin (life” for “USA) and 1 penicillin (life”, “3 h. The photosensitized cells were then irradiated with a 50 mW, 0.09 J/cm^2 laser for 100 sec. The cells” for “3 h. The cells”"}, "[7]": {"assay": "Dark cytotoxicity, MTT assay, MIA-PaCa-2", "type": "cell-based", "details": "human, MIA-PaCa-2 cells, 3 h, no light, 72 h incubation, read-out: Cell viability, Dark cytotoxicity against MIA-PaCa-2", "procedure": "as §1"}, "[8]": {"assay": "Dark cytotoxicity, MTT assay, AsPC-1", "type": "cell-based", "details": "human, AsPC-1 pancreatic cancer cells, 3 h, no light, 72 h incubation, read-out: Cell viability, Dark Cytotoxicity against AsPC-1", "procedure": "as §1"}, "[9]": {"details": "12.5 μM concentration, with light"}}}
{"smiles": "C=Cc1c(C)c2cc3nc(c(CC(=O)OC)c4[nH]c(cc5nc(cc1[nH]2)C(C)=C5CC)c(C)c4C(=O)NCCCNC(=O)CCCC(=O)Oc1ccc(/C=C/C(=O)CC(=O)/C=C/c2ccc(O)c(OC)c2)cc1OC)C(CCC(=O)OC)C3C", "note": "(stereo not shown) [Compound 7, Chlorine e6-curcumin Conjugate (7)]", "values": [{"measurement": "Cell viability, Dark cytotoxicity against MIA-PaCa-2", "setting": "[1]; 3.12 μM photosensitizer", "result": 107.39, "unit": "%"}, {"measurement": "Cell viability, Dark cytotoxicity against MIA-PaCa-2", "setting": "[1]; 6.25 μM photosensitizer", "result": 104.17, "unit": "%"}, {"measurement": "Cell viability, Dark cytotoxicity against MIA-PaCa-2", "setting": "[1]; 12.5 μM photosensitizer", "result": 101.89, "unit": "%"}, {"measurement": "Cell viability, Dark cytotoxicity against MIA-PaCa-2", "setting": "[1]; 25 μM photosensitizer", "result": 99.23, "unit": "%"}, {"measurement": "Cell viability, Dark cytotoxicity against MIA-PaCa-2", "setting": "[1]; 50 μM photosensitizer", "result": 88.84, "unit": "%"}, {"measurement": "Cell viability, Phototoxicity against AsPC-1", "setting": "[2]; 3.12 μM photosensitizer", "result": 85.97, "unit": "%"}, {"measurement": "Cell viability, Phototoxicity against AsPC-1", "setting": "[2]; 6.25 μM photosensitizer", "result": 43.03, "unit": "%"}, {"measurement": "Inhibition of AsPC-1 (PDT)", "setting": "[2]; [9]", "result": 75, "unit": "%"}, {"measurement": "Cell viability, Phototoxicity against AsPC-1", "setting": "[2]; 12.5 μM photosensitizer", "result": 24.03, "unit": "%"}, {"measurement": "Cell viability, Phototoxicity against AsPC-1", "setting": "[2]; 25 μM photosensitizer", "result": 10.35, "unit": "%"}, {"measurement": "Cell viability, Phototoxicity against AsPC-1", "setting": "[2]; 50 μM photosensitizer", "result": 6.63, "unit": "%"}, {"measurement": "Cell viability, Dark Cytotoxicity against AsPC-1", "setting": "[3]; 3.12 μM photosensitizer", "result": 100.58, "unit": "%"}, {"measurement": "Cell viability, Dark Cytotoxicity against AsPC-1", "setting": "[3]; 6.25 μM photosensitizer", "result": 101.61, "unit": "%"}, {"measurement": "Cell viability, Dark Cytotoxicity against AsPC-1", "setting": "[3]; 12.5 μM photosensitizer", "result": 103.72, "unit": "%"}, {"measurement": "Cell viability, Dark Cytotoxicity against AsPC-1", "setting": "[3]; 25 μM photosensitizer", "result": 97.17, "unit": "%"}, {"measurement": "Cell viability, Dark Cytotoxicity against AsPC-1", "setting": "[3]; 50 μM photosensitizer", "result": 90.14, "unit": "%"}, {"measurement": "Cell viability, Phototoxicity against PANC-1", "setting": "[4]; 3.12 μM photosensitizer", "result": 66.14, "unit": "%"}, {"measurement": "Cell viability, Phototoxicity against PANC-1", "setting": "[4]; 6.25 μM photosensitizer", "result": 31.56, "unit": "%"}, {"measurement": "Inhibition of PANC-1 (PDT)", "setting": "[4]; [9]", "result": 88, "unit": "%"}, {"measurement": "Cell viability, Phototoxicity against PANC-1", "setting": "[4]; 12.5 μM photosensitizer", "result": 12.33, "unit": "%"}, {"measurement": "Cell viability, Phototoxicity against PANC-1", "setting": "[4]; 25 μM photosensitizer", "result": 11.58, "unit": "%"}, {"measurement": "Cell viability, Phototoxicity against PANC-1", "setting": "[4]; 50 μM photosensitizer", "result": 11.87, "unit": "%"}, {"measurement": "Q-band peak", "setting": "[5]", "result": 667, "unit": "nm"}, {"measurement": "Cell viability, Phototoxicity against MIA-PaCa-2", "setting": "[6]; 3.12 μM photosensitizer", "result": 69.70, "unit": "%"}, {"measurement": "Cell viability, Phototoxicity against MIA-PaCa-2", "setting": "[6]; 6.25 μM photosensitizer", "result": 12.35, "unit": "%"}, {"measurement": "Inhibition of MIA-PaCa-2 (PDT)", "setting": "[6]; [9]", "result": 94, "unit": "%"}, {"measurement": "Cell viability, Phototoxicity against MIA-PaCa-2", "setting": "[6]; 12.5 μM photosensitizer", "result": 6.03, "unit": "%"}, {"measurement": "Cell viability, Phototoxicity against MIA-PaCa-2", "setting": "[6]; 25 μM photosensitizer", "result": 5.18, "unit": "%"}, {"measurement": "Cell viability, Phototoxicity against MIA-PaCa-2", "setting": "[6]; 50 μM photosensitizer", "result": 4.99, "unit": "%"}]}
{"smiles": "C=Cc1c(C)c2cc3nc(c(CC(=O)OC)c4[nH]c(cc5nc(cc1[nH]2)C(C)=C5CC)c(C)c4C(=O)NCCCOCCOCCOCCCNC(=O)CCCC(=O)Oc1ccc(/C=C/C(=O)CC(=O)/C=C/c2ccc(O)c(OC)c2)cc1OC)[C@@H](CCC(=O)OC)[C@@H]3C", "note": "[Compound 16, Chlorine e6-curcumin Conjugate (16)]", "values": [{"measurement": "viability at 3.12 μM", "setting": "[7]; 3.12 μM photosensitizer", "result": 122, "unit": "%"}, {"measurement": "viability at 6.25 μM", "setting": "[7]; 6.25 μM photosensitizer", "result": 121, "unit": "%"}, {"measurement": "viability at 12.5 μM", "setting": "[7]; 12.5 μM photosensitizer", "result": 113, "unit": "%"}, {"measurement": "viability at 25 μM", "setting": "[7]; 25 μM photosensitizer", "result": 101, "unit": "%"}, {"measurement": "viability at 50 μM", "setting": "[7]; 50 μM photosensitizer", "result": 72.8, "unit": "%"}, {"measurement": "Cell viability, Phototoxicity against AsPC-1", "setting": "[2]; 3.12 μM photosensitizer", "result": 87.29, "unit": "%"}, {"measurement": "Cell viability, Phototoxicity against AsPC-1", "setting": "[2]; 6.25 μM photosensitizer", "result": 45.79, "unit": "%"}, {"measurement": "Cell viability, Phototoxicity against AsPC-1", "setting": "[2]; 12.5 μM photosensitizer", "result": 32.67, "unit": "%"}, {"measurement": "Cell viability, Phototoxicity against AsPC-1", "setting": "[2]; 25 μM photosensitizer", "result": 25.46, "unit": "%"}, {"measurement": "Cell viability, Phototoxicity against AsPC-1", "setting": "[2]; 50 μM photosensitizer", "result": 27.83, "unit": "%"}, {"measurement": "inhibition at 25 µM", "setting": "[2]; Homo sapiens, ASPC1, 25 μM concentration, with light", "result": 75, "unit": "%"}, {"measurement": "viability at 3.12 μM", "setting": "[8]; 3.12 μM photosensitizer", "result": 99.9, "unit": "%"}, {"measurement": "viability at 6.25 μM", "setting": "[8]; 6.25 μM photosensitizer", "result": 103, "unit": "%"}, {"measurement": "viability at 12.5 μM", "setting": "[8]; 12.5 μM photosensitizer", "result": 103, "unit": "%"}, {"measurement": "viability at 25 μM", "setting": "[8]; 25 μM photosensitizer", "result": 80.4, "unit": "%"}, {"measurement": "viability at 50 μM", "setting": "[8]; 50 μM photosensitizer", "result": 84.1, "unit": "%"}, {"measurement": "Cell viability, Phototoxicity against PANC-1", "setting": "[4]; 3.12 μM photosensitizer", "result": 97.36, "unit": "%"}, {"measurement": "Cell viability, Phototoxicity against PANC-1", "setting": "[4]; 6.25 μM photosensitizer", "result": 89.19, "unit": "%"}, {"measurement": "Cell viability, Phototoxicity against PANC-1", "setting": "[4]; 12.5 μM photosensitizer", "result": 59.07, "unit": "%"}, {"measurement": "Cell viability, Phototoxicity against PANC-1", "setting": "[4]; 25 μM photosensitizer", "result": 24.07, "unit": "%"}, {"measurement": "Cell viability, Phototoxicity against PANC-1", "setting": "[4]; 50 μM photosensitizer", "result": 20.24, "unit": "%"}, {"measurement": "inhibition at 25 µM", "setting": "[4]; Homo sapiens, PANC-1, 25 μM concentration, with light", "result": 76, "unit": "%"}, {"measurement": "Q-band peak", "setting": "[5]", "result": 667, "unit": "nm"}, {"measurement": "Cell viability, Phototoxicity against MIA-PaCa-2", "setting": "[6]; 3.12 μM photosensitizer", "result": 80.67, "unit": "%"}, {"measurement": "Cell viability, Phototoxicity against MIA-PaCa-2", "setting": "[6]; 6.25 μM photosensitizer", "result": 17.62, "unit": "%"}, {"measurement": "Cell viability, Phototoxicity against MIA-PaCa-2", "setting": "[6]; 12.5 μM photosensitizer", "result": 9.49, "unit": "%"}, {"measurement": "Cell viability, Phototoxicity against MIA-PaCa-2", "setting": "[6]; 25 μM photosensitizer", "result": 8.03, "unit": "%"}, {"measurement": "Cell viability, Phototoxicity against MIA-PaCa-2", "setting": "[6]; 50 μM photosensitizer", "result": 9.67, "unit": "%"}, {"measurement": "inhibition at 25 µM", "setting": "[6]; Homo sapiens, MIA PaCa-2, 25 μM concentration, with light", "result": 92, "unit": "%"}]}
